Measured values taken from ChEMBL document CHEMBL2010668 (Bioorg Med Chem Lett, 2012).

Tests used:
Tyrosinase = biological target: T1, Tyrosinase (Agaricus bisporus, UniProt O42713); test: Inhibition of mushroom tyrosinase
T1 sequence (O42713 whole entry): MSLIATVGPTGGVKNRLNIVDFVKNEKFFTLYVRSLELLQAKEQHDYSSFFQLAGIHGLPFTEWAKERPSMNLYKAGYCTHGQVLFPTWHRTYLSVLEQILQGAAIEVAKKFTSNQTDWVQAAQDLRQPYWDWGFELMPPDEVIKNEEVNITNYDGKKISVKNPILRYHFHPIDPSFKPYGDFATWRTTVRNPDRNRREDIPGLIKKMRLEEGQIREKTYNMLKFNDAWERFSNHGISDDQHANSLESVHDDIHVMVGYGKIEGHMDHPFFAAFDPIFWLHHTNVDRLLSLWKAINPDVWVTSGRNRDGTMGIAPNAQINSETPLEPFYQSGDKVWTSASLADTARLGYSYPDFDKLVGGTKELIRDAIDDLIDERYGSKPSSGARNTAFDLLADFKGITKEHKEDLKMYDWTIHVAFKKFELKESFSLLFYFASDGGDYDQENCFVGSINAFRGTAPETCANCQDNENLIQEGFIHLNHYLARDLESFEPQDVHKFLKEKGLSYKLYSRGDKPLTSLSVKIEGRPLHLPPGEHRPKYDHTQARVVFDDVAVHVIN

cells = conditions: Mus musculus, Melan-a
Description: Depigmenting activity in mouse Melan-a cells assessed as melanin production

[1] = Cytotoxicity against mouse Melan-a cells assessed as cell survival at 80 uM; type: cell-based; conditions: read-out: Survival
[2] = Cytotoxicity against mouse Melan-a cells at 46.64 uM; type: cell-based
[3] = Cytotoxicity against mouse Melan-a cells assessed as cell survival at 100 uM; type: cell-based; conditions: read-out: Survival
[4] = Cytotoxicity against mouse Melan-a cells assessed as cell survival at 50 uM; type: cell-based; conditions: read-out: Survival

| SMILES | IC50 (Tyrosinase) | IC50 (cells) | viability at 80 µM [1] | Activity [2] | viability at 100 µM [3] | viability at 50 µM [4] |
| --- | --- | --- | --- | --- | --- | --- |
| O=C(/C=C/c1ccc2c(c1)OCO2)Oc1coc(CO)cc1=O | > 200 µM | 46.6 µM | 98.9% | Non-toxic | – | – |
| O=C(/C=C/c1ccc2c(c1)OCO2)OCc1cc(=O)c(O)co1 | 1.53 µM | > 100 µM | – | – | 97.1% | – |
| O=C(/C=C/c1ccc2c(c1)OCO2)OC(=O)/C=C/c1ccc2c(c1)OCO2 | > 100 µM | > 100 µM | – | – | 97.1% | – |
| O=C(/C=C/c1ccc2c(c1)OCO2)OCc1cc(=O)c(OCc2cc(=O)c(O)co2)co1 | > 100 µM | 23.5 µM | – | – | – | 95.9% |
